One may read the IC50 as the concentration at which inhibition is half-maximal. Lower therefore signals inhibition by little substance.

The subject of experiment [1] is il6. The experiment in a line: qPCR il6 expression in zebrafish larvae. Type of experiment: in vivo, zebrafish (Danio rerio). The note with it: for il6 expression after wounding: 10 μM beclomethasone, 50 μM Rg1 or combination, 4 h after wounding. The procedure:
To determine levels of gene expression in zebrafish larvae, 3 dpf larvae were used in both wounded and non-wounded conditions, and after short- and long-term treatments. Groups of 15 larvae were collected in TRIzol reagent (ThermoFisher) and total RNA was isolated using miRNeasy mini kit (Qiagen, Hilden, Germany). For experiments in HeLa cells, cells were seeded in 6 well plates and after treatment, the cells were removed from the wells using TRIzol reagent and mRNA was isolated using miRNeasy mini kit (Qiagen) according to the manufacturer's instructions. The RNA samples were DNAse-treated utilizing the DNA-free™ DNA Removal Kit (ThermoFisher Scientific). The cDNA synthesis was performed using the iScript cDNA synthesis kit (Bio-Rad Laboratories, Hercules, CA, USA) using 1 μg of RNA per sample. For qPCR, 10 μM of forward primer and 10 μM of reverse primer, 12.5 μl of IQ SYBR Green Supermix (Bio-Rad Laboratories), and 2 μl of cDNA were added to the qPCR reaction mixture. […] The qPCR reactions were performed on a MyiQ-single-color real-time PCR detection system (Bio-Rad Laboratories), with initial denaturation for 3 min, 95° C., and 40 cycles of 15 s at 95.5° C., 15 s at 60° C., and 30 s at 72° C. Cycle threshold values (Ct values, i.e. the cycle numbers at which a threshold value of the fluorescence intensity was reached) were determined for each sample. […] The fold change per sample (compared to the respective control group) was calculated using the […]Ct method.
To determine mRNA levels of specific genes in zebrafish, 3 dpf larvae were used (wounded and non-wounded) and after 6 h of chemical treatments (2 h pre-wounding, 4 h post-wounding), as indicated. […] Cycle threshold values (Ct values, i.e. the cycle numbers at which a threshold value of the fluorescence intensity was reached) were determined for each sample. […] The fold change per sample (compared to the respective control group) was calculated using the ΔΔCt method.
Background: In qPCR the cycle at which signal appears reflects the starting amount.

For experiment [2], the target named is T1, GR (Homo sapiens, UniProt P04150).
T1 sequence (P04150 1-777): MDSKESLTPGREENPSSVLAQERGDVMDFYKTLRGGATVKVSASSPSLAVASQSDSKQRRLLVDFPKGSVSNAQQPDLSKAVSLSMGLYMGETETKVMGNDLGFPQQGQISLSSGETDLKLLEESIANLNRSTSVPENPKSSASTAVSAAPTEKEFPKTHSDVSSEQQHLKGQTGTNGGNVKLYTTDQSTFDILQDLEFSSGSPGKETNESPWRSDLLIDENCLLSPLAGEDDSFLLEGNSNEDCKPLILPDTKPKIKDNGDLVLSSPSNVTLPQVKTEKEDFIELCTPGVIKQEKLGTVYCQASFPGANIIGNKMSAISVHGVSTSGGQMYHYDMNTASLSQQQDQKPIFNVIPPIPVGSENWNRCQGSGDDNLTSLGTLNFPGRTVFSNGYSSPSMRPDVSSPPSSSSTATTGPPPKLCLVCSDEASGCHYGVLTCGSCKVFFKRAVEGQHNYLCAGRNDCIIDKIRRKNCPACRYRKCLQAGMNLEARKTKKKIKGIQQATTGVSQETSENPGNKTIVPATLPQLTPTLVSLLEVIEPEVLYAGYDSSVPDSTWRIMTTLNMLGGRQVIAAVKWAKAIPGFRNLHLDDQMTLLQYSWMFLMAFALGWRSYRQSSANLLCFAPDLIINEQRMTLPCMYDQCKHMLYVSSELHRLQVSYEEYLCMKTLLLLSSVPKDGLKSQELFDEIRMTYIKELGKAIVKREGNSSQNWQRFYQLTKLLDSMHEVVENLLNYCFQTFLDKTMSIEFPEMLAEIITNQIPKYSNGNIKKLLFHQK
The experiment in a line: PolarScreen Glucocorticoid Receptor competitive binding assay. The arrangement: followed by GR Full Length (partially purified receptor in storage buffer); purchased ThermoFisher Scientific. The procedure: To determine the relative binding affinities of the different compounds for the human GR in vitro, the PolarScreen™ Glucocorticoid Receptor Competitor Assay Kit (ThermoFisher Scientific, Waltham, MA, USA) was used following the manufacturer's instructions. Briefly, test compounds were first dissolved in DMSO to a 10 mM stock concentration and further diluted in GR buffer (100 mM potassium phosphate (pH 7.4), 200 mM Na2MoO4, 1 mM EDTA, and 20% DMSO). Serial dilutions of the compounds were transferred to a Corning® black 384-well plate and Fluormone GS red™ was added, followed by GR Full Length (partially purified receptor in storage buffer). The plate was incubated for 4 h at RT in the dark and fluorescence polarization was measured with a CLARIOStar Microplate Reader (BMG Labtech, Ortenberg, Germany). Obtained values were normalized to the assay maximum (no ligand) and minimum control (10 µM dexamethasone), and relative percentages of polarization were determined. Dose-response curves were fitted enabling the calculations of IC50 values for each compound.

Experiment [3] concerns mmp9. The experiment in a line: qPCR mmp9 expression in zebrafish larvae. Type of experiment: in vivo, zebrafish (Danio rerio). The note with it: Example 2, wounded larvae. The procedure:
To determine mRNA levels of specific genes in zebrafish, 3 dpf larvae were used (wounded and non-wounded) and after 6 h of chemical treatments (2 h pre-wounding, 4 h post-wounding), as indicated. Per sample, groups of 15 larvae were collected in TRIzol reagent (Thermo Fisher Scientific, Waltham, MA, USA), and total RNA was isolated using the miRNeasy mini kit (Qiagen, Hilden, Germany). For similar experiments in Hela cells, cells were seeded in 6 well plates, and after 6 h of chemical treatment, the cells were removed from the wells using TRIzol reagent, and total RNA was isolated using the miRNeasy mini kit according to the manufacturer's instructions. The RNA samples were DNAse-treated utilizing the DNA-free™ DNA Removal Kit (Thermo Fisher Scientific). The cDNA synthesis was performed using the iScript cDNA synthesis kit (Bio-Rad Laboratories, Hercules, CA, USA) using 1 μg of RNA per sample. For the PCR reactions, 10 μM of forward and 10 μM of reverse primer, 12.5 μl of iQ SYBR Green Supermix (Bio-Rad), and 2 μl of cDNA were added to the qPCR reaction mixture. […] Cycle threshold values (Ct values, i.e. the cycle numbers at which a threshold value of the fluorescence intensity was reached) were determined for each sample. […] The fold change per sample (compared to the respective control group) was calculated using the ΔΔCt method.

For the compound `CC(C)=CCC[C@](C)(O[C@@H]1O[C@H](CO)[C@@H](O)[C@H](O)[C@H]1O)[C@H]1CC[C@]2(C)[C@@H]1[C@H](O)C[C@@H]1[C@@]3(C)CC[C@H](O)C(C)(C)[C@@H]3[C@@H](O[C@@H]3O[C@H](CO)[C@@H](O)[C@H](O)[C@H]3O)C[C@]12C` [Rg1, (3β,6α, 12β)-3,12-Dihydroxydammar-24-ene-6,20-diyl bis-β-D-glucopyranoside], the “il6 expression after wounding” value in experiment [1] is given as “slightly decreased the expression of these genes”. Moreover, the IC50 in experiment [2] (fluorescence polarization, 4 h at RT) was found to be 22 µM. Further, the “relative GR binding affinity, times lower than beclomethasone” value in experiment [2] (vs beclomethasone) is ~ 4,000 times.

Turning to `C[C@H]1C[C@H]2[C@@H]3CCC4=CC(=O)C=C[C@]4(C)[C@@]3(Cl)[C@@H](O)C[C@]2(C)[C@@]1(O)C(=O)CO` [beclomethasone, reference compound], the “il6 expression after wounding” value in experiment [1] was “slightly decreased the expression of these genes”. Besides, the il6 expression entry in experiment [1] (Example 2, wounded larvae) is “suppressed the expression levels of il1b, il6 and mmp9, similarly to Bec”. Further, the mmp9 expression entry in experiment [3] is “suppressed the expression levels of il1b, il6 and mmp9, similarly to Bec”.
